Data reported in article PMC11684029, “Discovery of VU6024578/BI02982816: An mGlu1 Positive Allosteric Modulator with Efficacy in Preclinical Antipsychotic and Cognition Models” (Journal of Medicinal Chemistry, 2024).
pEC50: −log10 of the molar value.

Key:
human mGlu1 = target: T1, human mGlu1 (Homo sapiens, UniProt Q13255); test: mGlu1 calcium mobilization (triple-add) PAM assay; format: cell-based
T1 construct: expressed in transfected cells; pcDNA5/TO)
Description: Tetracycline-inducible human mGlu1 WT-T-REx-293 cells (Wu et al, Science 2014) were cultured at 37 °C in Dulbecco’s Modified Eagle Medium (DMEM) growth medium containing 10% Tet-tested FBS, 2 mM L-glutamine, 20 mM HEPES, 0.1 mM nonessential amino acids, 1 mM sodium pyruvate, antibiotic/antimycotic, 100 μg/mL hygromycin and 5 μg/mL blasticidin in the presence of 5% CO2. […] The mutant stable cell lines were generated in the same manner as the WT as previously described and cultured in the growth medium described above.
To determine the potency of mGlu1 PAMs in calcium assays, Ca flux was measured as previously described in ACS Chem. Bio. 2014, 9, 2334–2346. Briefly, the day before the assay, human mGlu1 WT-T-REx-293 cells were plated in black-walled, clear-bottomed, poly-D-lysine coated 96-well plates at 80,000 cells/100 μL assay medium (DMEM supplemented with 10% dialyzed FBS, 20 mM HEPES, and 1 mM sodium pyruvate) containing 50 ng/mL of tetracycline to induce mGlu1 expression. The next day, media was removed and the cells were incubated with 50 μL of 1.15 μM Fluo-4 AM dye solution prepared in assay buffer (buffer (Hank’s balanced salt solution, 20 mM HEPES, and 2.5 mM probenecid) for 45 min at 37 °C, the dye was removed and replaced with 45 μL of assay buffer. Then, calcium flux was measured using Flexstation II (Molecular Devices, Sunnyvale, CA). Compounds serially diluted at half log concentrations in DMSO were further diluted in assay buffer. The compounds or DMSO vehicle were added to cells and incubated for 2.5 min and an EC20 concentration of glutamate was added and incubated for 1 min. An ECmax concentration of glutamate was also added to cells that were incubated with DMSO vehicle to accurately calculate the EC20 calcium response. Data were normalized by subtracting the basal florescent peak before EC20 agonist addition from the maximal peak elicited by EC20 agonist and PAMs. Using GraphPad Prism 5.0, the concentration response curves were generated and the potencies of the mGlu1 PAMs were determined.

[1] = intrinsic clearance, predicted hepatic clearance; format: in vitro ADME, human; settings: in vitro predicted hepatic clearance
Description: (§1) Human or rat hepatic microsomes (0.5 mg/mL) and 1 μM test compound were incubated in 100 mM potassium phosphate pH 7.4 buffer with 3 mM MgCl2 at 37 °C with constant shaking. After a 5 min preincubation, the reaction was initiated by addition of NADPH (1 mM). At selected time intervals (0, 3, 7, 15, 25, and 45 min), aliquots were taken and subsequently placed into a 96-well plate containing cold acetonitrile with internal standard (50 ng/mL carbamazepine). Plates were then centrifuged at 3000 rcf (4 °C) for 10 min, and the supernatant was transferred to a separate 96-well plate and diluted 1:1 with water for LC/MS/MS analysis. The in vitro half-life (T1/2, min, eq 1), intrinsic clearance (CLint, mL/min/kg, eq 2) and subsequent predicted hepatic clearance (CLhep, mL/min/kg, eq 3) was determined employing the following equations: [drawing 2] 1 where k represents the slope from linear regression analysis of the natural log percent remaining of test compound as a function of incubation time [drawing 3] 2
(§2) ^ascale-up factors: of 20 (human) or 45 (rat) [drawing 4] 3 where Qh (hepatic blood flow, mL/min/kg) is 21 (human) or 70 (rat).

[2] = plasma protein binding, equilibrium dialysis; format: in vitro ADME, human; settings: fraction unbound
Description: (§3) The protein binding of each compound was determined in plasma via equilibrium dialysis employing RED Plates (ThermoFisher Scientific, Rochester, NY). Plasma was added to the 96 well plate containing test compound and mixed thoroughly for a final concentration of 5 μM. Subsequently, an aliquot of the plasma-compound mixture was transferred to the cis chamber (red) of the RED plate, with an phosphate buffer (25 mM, pH 7.4) in the trans chamber. The RED plate was sealed and incubated for 4 h at 37 °C with shaking. At completion, aliquots from each chamber were diluted 1:1 with either plasma (cis) or buffer (trans) and transferred to a new 96 well plate, at which time ice-cold acetonitrile containing internal standard (50 ng/mL carbamazepine) (2 volumes) was added to extract the matrices. The plate was centrifuged (3000 rcf, 10 min) and supernatants transferred and diluted 1:1 (supernatant: water) into a new 96 well plate, which was then sealed in preparation for LC/MS/MS analysis. Each compound was assayed in triplicate within the same 96-well plate. Fraction unbound was determined using the following equation [drawing 1]

rat mGlu1 = rat mGlu1 (Rattus norvegicus, UniProt P23385); test: mGlu1 calcium mobilization PAM assay; format: cell-based; settings: PAM, calcium flux
[3] = plasma protein binding, equilibrium dialysis; format: in vitro ADME, rat; settings: fraction unbound
Description: as §3

brain homogenate binding = format: in vitro ADME, rat; settings: fraction unbound
[4] = intrinsic clearance, predicted hepatic clearance; format: in vitro ADME, rat; settings: in vitro predicted hepatic clearance
Description: as §1, §2

[5] = PAM, calcium flux, EC20 glutamate

T1 sequence (Q13255 19-1194): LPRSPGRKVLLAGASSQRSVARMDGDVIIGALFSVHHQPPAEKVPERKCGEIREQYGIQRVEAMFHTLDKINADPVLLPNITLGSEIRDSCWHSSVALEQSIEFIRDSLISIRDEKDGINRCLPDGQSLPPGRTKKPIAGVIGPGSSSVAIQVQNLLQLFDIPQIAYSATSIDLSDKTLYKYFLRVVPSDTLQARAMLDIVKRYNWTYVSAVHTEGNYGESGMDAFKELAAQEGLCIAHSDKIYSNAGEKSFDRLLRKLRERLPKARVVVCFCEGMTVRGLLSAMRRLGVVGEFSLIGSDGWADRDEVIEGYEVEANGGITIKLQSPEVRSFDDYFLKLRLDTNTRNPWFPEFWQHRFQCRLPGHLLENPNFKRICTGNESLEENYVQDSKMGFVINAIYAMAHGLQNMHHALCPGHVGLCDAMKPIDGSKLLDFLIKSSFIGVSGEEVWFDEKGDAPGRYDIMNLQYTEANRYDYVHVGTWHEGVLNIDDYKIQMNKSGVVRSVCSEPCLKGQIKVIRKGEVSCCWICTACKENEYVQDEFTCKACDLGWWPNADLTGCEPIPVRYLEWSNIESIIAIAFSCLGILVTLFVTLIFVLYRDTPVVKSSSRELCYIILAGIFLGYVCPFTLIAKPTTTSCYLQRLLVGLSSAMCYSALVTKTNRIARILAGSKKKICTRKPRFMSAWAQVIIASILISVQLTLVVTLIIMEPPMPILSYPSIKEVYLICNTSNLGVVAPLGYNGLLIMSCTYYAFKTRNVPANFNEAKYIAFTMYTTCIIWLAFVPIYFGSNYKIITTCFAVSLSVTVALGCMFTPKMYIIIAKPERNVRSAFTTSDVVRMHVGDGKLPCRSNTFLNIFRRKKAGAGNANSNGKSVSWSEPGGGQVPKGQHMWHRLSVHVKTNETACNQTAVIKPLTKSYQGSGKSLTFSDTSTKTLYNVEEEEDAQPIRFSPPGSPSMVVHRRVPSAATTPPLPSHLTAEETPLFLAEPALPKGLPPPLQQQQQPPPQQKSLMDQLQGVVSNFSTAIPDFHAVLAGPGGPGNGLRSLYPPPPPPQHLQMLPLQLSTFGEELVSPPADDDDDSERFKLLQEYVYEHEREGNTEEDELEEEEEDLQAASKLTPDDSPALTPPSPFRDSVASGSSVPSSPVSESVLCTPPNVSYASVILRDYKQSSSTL
Sequence of rat mGlu1 (P23385 19-1199): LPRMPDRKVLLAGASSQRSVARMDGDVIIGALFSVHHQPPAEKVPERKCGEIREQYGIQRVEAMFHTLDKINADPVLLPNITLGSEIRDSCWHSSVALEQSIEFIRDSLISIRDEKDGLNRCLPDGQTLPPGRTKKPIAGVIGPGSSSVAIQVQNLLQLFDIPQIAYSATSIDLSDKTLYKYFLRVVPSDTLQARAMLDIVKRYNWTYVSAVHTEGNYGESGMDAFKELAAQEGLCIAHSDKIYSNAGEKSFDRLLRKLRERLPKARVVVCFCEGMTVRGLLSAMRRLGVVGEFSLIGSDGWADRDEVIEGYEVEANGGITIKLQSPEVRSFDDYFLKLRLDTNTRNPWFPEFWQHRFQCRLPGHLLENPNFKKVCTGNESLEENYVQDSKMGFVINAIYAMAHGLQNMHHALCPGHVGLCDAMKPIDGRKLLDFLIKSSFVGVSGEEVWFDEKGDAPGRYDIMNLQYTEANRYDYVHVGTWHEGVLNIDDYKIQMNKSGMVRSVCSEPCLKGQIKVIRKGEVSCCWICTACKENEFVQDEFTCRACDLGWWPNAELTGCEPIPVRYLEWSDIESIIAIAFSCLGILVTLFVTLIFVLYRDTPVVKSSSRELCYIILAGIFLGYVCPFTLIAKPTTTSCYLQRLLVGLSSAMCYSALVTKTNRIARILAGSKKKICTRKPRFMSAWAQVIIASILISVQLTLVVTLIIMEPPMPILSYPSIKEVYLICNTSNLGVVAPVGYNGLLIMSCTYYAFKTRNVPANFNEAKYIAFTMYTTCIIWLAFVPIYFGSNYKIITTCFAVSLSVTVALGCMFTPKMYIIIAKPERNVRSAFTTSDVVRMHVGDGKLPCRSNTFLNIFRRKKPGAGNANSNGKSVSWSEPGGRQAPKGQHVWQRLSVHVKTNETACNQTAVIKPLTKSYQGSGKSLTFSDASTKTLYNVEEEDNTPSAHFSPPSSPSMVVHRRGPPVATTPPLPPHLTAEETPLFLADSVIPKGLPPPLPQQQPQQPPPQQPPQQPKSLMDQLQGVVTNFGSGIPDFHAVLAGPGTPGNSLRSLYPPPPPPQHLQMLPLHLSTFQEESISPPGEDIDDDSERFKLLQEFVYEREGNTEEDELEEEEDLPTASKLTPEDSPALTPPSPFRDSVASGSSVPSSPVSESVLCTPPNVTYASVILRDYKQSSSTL

O=C(NCc1noc(C2CC2)n1)c1cc(-c2ccco2)ccc1Cl [Compound 15c, 2-Chloro-N-((5-cyclopropyl-1,2,4-oxadiazol-3-yl)methyl)-5-(furan-2-yl)benzamide]
pEC50 (human mGlu1; [5]): 5.00
human mGlu1 Glumax (human mGlu1; [5]): 44%

COc1ccc(C)cc1C(=O)NCc1cnn2ccccc12 [Compound 9b, 2-Methoxy-5-methyl-N-(pyrazolo[1,5-a]pyridin-3-ylmethyl)benzamide]
pEC50 (human mGlu1; [5]): 5.13
human mGlu1 Glumax (human mGlu1; [5]): 62%

Cn1nc(-c2cccs2)cc1CNC(=O)c1cc(-c2ccco2)ccc1Cl [Compound 19a, 2-Chloro-5-(furan-2-yl)-N-((1-methyl-3-(thiophen-2-yl)-1H-pyrazol-5-yl)methyl)benzamide]
CLhep, human [1]: 19.0 mL/min/kg
pEC50 (human mGlu1; [5]): 7.25
human mGlu1 Glumax (human mGlu1; [5]): 69%
human fuplasma [2]: 0.002
pEC50 (rat mGlu1): 7.70
rat mGlu1 Glumax (rat mGlu1): 109%
rat fuplasma [3]: 0.002
rat fubrain (brain homogenate binding): 0.003
CLhep, rat [4]: 54.8 mL/min/kg

O=C(NCc1cnn2ccccc12)c1cc(Cl)ccc1Cl [Compound 9d, 2,5-Dichloro-N-(pyrazolo[1,5-a]pyridin-3-ylmethyl)benzamide]
pEC50 (human mGlu1; [5]): 5.42
human mGlu1 Glumax (human mGlu1; [5]): 46%
improvement in mGlu1 PAM potency over HTS hit 6 (human mGlu1; human mGlu1 EC50 ratio): ~3 fold

O=C(NCc1cnn2ccccc12)c1cc(-c2nccs2)ccc1Cl [Compound 9i, 2-Chloro-N-(pyrazolo[1,5-a]pyridin-3-ylmethyl)-5-(thiazol-2-yl)benzamide]
pEC50 (human mGlu1; [5]): 6.10
human mGlu1 Glumax (human mGlu1; [5]): 61%
pEC50 (rat mGlu1): 5.50
rat mGlu1 Glumax (rat mGlu1): 79%

COc1ccc(Cl)cc1C(=O)NCc1cnn2ccccc12 [Compound 6, 5-Chloro-2-methoxy-N-(pyrazolo[1,5-a]pyridin-3-ylmethyl)benzamide]
pEC50 (human mGlu1; [5]): < 5.00
human mGlu1 Glumax (human mGlu1; [5]): 71%

O=C(NCc1cnn2ccccc12)c1cc(-c2cccs2)ccc1Cl [Compound 9g, 2-Chloro-N-(pyrazolo[1,5-a]pyridin-3-ylmethyl)-5-(thiophen-2-yl)benzamide]
pEC50 (human mGlu1; [5]): 6.54
human mGlu1 Glumax (human mGlu1; [5]): 51%
pEC50 (rat mGlu1): 6.43
rat mGlu1 Glumax (rat mGlu1): 75%

Cn1nc(-c2ccccc2F)cc1CNC(=O)c1cc(-c2ccco2)ccc1Cl [Compound 19b, 2-Chloro-N-((3-(2-fluorophenyl)-1-methyl-1H-pyrazol-5-yl)methyl)-5-(furan-2-yl)benzamide]
CLhep, human [1]: 18.6 mL/min/kg
pEC50 (human mGlu1; [5]): 6.71
human mGlu1 Glumax (human mGlu1; [5]): 85%
human fuplasma [2]: 0.002
pEC50 (rat mGlu1): 6.88
rat mGlu1 Glumax (rat mGlu1): 116%
rat fuplasma [3]: 0.002
rat fubrain (brain homogenate binding): 0.003
CLhep, rat [4]: 56.4 mL/min/kg

Cn1nc(-c2cccnc2)cc1CNC(=O)c1cc(-c2ccco2)ccc1Cl [Compound 19c, 2-Chloro-5-(furan-2-yl)-N-((1-methyl-3-(pyridin-3-yl)-1H-pyrazol-5-yl)methyl)benzamide]
CLhep, human [1]: 18.8 mL/min/kg
pEC50 (human mGlu1; [5]): 7.13
human mGlu1 Glumax (human mGlu1; [5]): 60%
human fuplasma [2]: 0.023
pEC50 (rat mGlu1): 6.91
rat mGlu1 Glumax (rat mGlu1): 116%
rat fuplasma [3]: 0.015
rat fubrain (brain homogenate binding): 0.021
CLhep, rat [4]: 51.7 mL/min/kg

O=C(NCc1cnn2ccccc12)c1cc(-c2ccccc2)ccc1Cl [Compound 9f, 4-Chloro-N-(pyrazolo[1,5-a]pyridin-3-ylmethyl)-[1,1′-biphenyl]-3-carboxamide]
pEC50 (human mGlu1; [5]): 6.36
human mGlu1 Glumax (human mGlu1; [5]): 33%
pEC50 (rat mGlu1): 6.00
rat mGlu1 Glumax (rat mGlu1): 48%

O=C(NCc1noc(-c2ccccc2)n1)c1cc(-c2ccco2)ccc1Cl [Compound 15b, 2-Chloro-5-(furan-2-yl)-N-((5-phenyl-1,2,4-oxadiazol-3-yl)methyl)benzamide]
CLhep, human [1]: 19.9 mL/min/kg
pEC50 (human mGlu1; [5]): 7.41
human mGlu1 Glumax (human mGlu1; [5]): 56%
human fuplasma [2]: 0.001
pEC50 (rat mGlu1): 7.21
rat mGlu1 Glumax (rat mGlu1): 106%
rat fuplasma [3]: 0.004
rat fubrain (brain homogenate binding): 0.005
CLhep, rat [4]: 61.8 mL/min/kg

Cn1nc(C(F)(F)F)cc1CNC(=O)c1cc(-c2ccco2)ccc1Cl [Compound 15f, 2-Chloro-5-(furan-2-yl)-N-((1-methyl-3-(trifluoromethyl)-1H-pyrazol-5-yl)methyl)benzamide]
CLhep, human [1]: 20.3 mL/min/kg
pEC50 (human mGlu1; [5]): 6.73
human mGlu1 Glumax (human mGlu1; [5]): 60%
human fuplasma [2]: 0.036
pEC50 (rat mGlu1): 6.55
rat mGlu1 Glumax (rat mGlu1): 74%
rat fuplasma [3]: 0.025
rat fubrain (brain homogenate binding): 0.019
CLhep, rat [4]: 57.1 mL/min/kg

O=C(NCc1cnn2ccccc12)c1cc(-c2ccsc2)ccc1Cl [Compound 9h, 2-Chloro-N-(pyrazolo[1,5-a]pyridin-3-ylmethyl)-5-(thiophen-3-yl)benzamide]
pEC50 (human mGlu1; [5]): 6.19
human mGlu1 Glumax (human mGlu1; [5]): 35%

O=C(NCc1cnc(-c2cccs2)s1)c1cc(-c2ccco2)ccc1Cl [Compound 15e, 2-Chloro-5-(furan-2-yl)-N-((2-(thiophen-2-yl)thiazol-5-yl)methyl)benzamide]
CLhep, human [1]: 19.7 mL/min/kg
pEC50 (human mGlu1; [5]): 7.02
human mGlu1 Glumax (human mGlu1; [5]): 71%
human fuplasma [2]: 0.001
pEC50 (rat mGlu1): 6.52
rat mGlu1 Glumax (rat mGlu1): 51%
rat fuplasma [3]: 0.003
rat fubrain (brain homogenate binding): 0.002
CLhep, rat [4]: 57.4 mL/min/kg

O=C(NCc1cc(-c2ccccc2)no1)c1cc(-c2ccco2)ccc1Cl [Compound 15a, 2-Chloro-5-(furan-2-yl)-N-((3-phenylisoxazol-5-yl)methyl)benzamide]
CLhep, human [1]: 19.4 mL/min/kg
pEC50 (human mGlu1; [5]): 6.68
human mGlu1 Glumax (human mGlu1; [5]): 96%
human fuplasma [2]: 0.001
rat fuplasma [3]: 0.009
CLhep, rat [4]: 60.9 mL/min/kg

Cc1ccc(Cl)cc1C(=O)NCc1cnn2ccccc12 [Compound 9c, 5-Chloro-2-methyl-N-(pyrazolo[1,5-a]pyridin-3-ylmethyl)benzamide]
pEC50 (human mGlu1; [5]): 5.22
human mGlu1 Glumax (human mGlu1; [5]): 47%

Cn1nccc1-c1ccc(Cl)c(C(=O)NCc2cnn3ccccc23)c1 [Compound 9j, 2-Chloro-5-(1-methyl-1H-pyrazol-5-yl)-N-(pyrazolo[1,5-a]pyridin-3-ylmethyl)benzamide]
human mGlu1 EC50 (Glumax), result in words (human mGlu1; [5]): Inactive

O=C(NCc1nc(C2CC2)no1)c1cc(-c2ccco2)ccc1Cl [Compound 15d, 2-Chloro-N-((3-cyclopropyl-1,2,4-oxadiazol-5-yl)methyl)-5-(furan-2-yl)benzamide]
pEC50 (human mGlu1; [5]): 6.15
human mGlu1 Glumax (human mGlu1; [5]): 80%
pEC50 (rat mGlu1): 6.29
rat mGlu1 Glumax (rat mGlu1): 95%

COc1ccc(OC)c(C(=O)NCc2cnn3ccccc23)c1 [Compound 9a, 2,5-Dimethoxy-N-(pyrazolo[1,5-a]pyridin-3-ylmethyl)benzamide]
pEC50 (human mGlu1; [5]): 5.29
human mGlu1 Glumax (human mGlu1; [5]): 45%
